In US6969763B1, “Molecular interaction sites of interleukin-2 RNA and methods of modulating the same” (priority 1999, dated 2005):
In brackets after ≈: the same amount, converted by molar mass. Read-outs that look alike come from different tables or passages of the source. One block for each molecule: values may come before it.

Columns and labels:
[1] = tested on: TAR RNA / tat peptide; experiment: disruption of TAR RNA interaction with tat peptide; format: binding, HIV
[2] = tested on: HIV TAR RNA structure in the 5'-UTR of luciferase mRNA; experiment: wheat germ lysate translation of luciferase mRNA containing the TAR RNA structure in the 5'-UTR; format: biochemical
Excerpt: It is believed that stabilization of mRNA structures near the 5′-cap also could be effected by specific “small” molecules, and that such binding would reduce the translational efficiency of the mRNA. To test this hypothesis, a plasmid was constructed containing the luciferase message behind a 5′-UTR containing a 27-mer RNA construct of the HIV TAR stem-loop bulge whose structure had been determined by NMR. The resulting mRNA could be expressed and capped in a wheat germ lysate translation system supplemented with T7 polymerase following addition of m^7G to the lysate (see, FIG. 38A). Insertion of a 9-base leader before the TAR structure (HIVluc+9) enhanced the translational efficiency, presumably by allowing the pre-initiation complex to form. The helicase activity associated with the pre-initiation complex can transiently melt out the TAR RNA structure, and the message is translated (see, FIG. 38A).

[3] = tested on: luciferase mRNA; experiment: wheat germ lysate translation of control luciferase mRNA (luc+9); format: biochemical; details: in words
Excerpt: It is believed that stabilization of mRNA structures near the 5′-cap also could be effected by specific “small” molecules, and that such binding would reduce the translational efficiency of the mRNA. To test this hypothesis, a plasmid was constructed containing the luciferase message behind a 5′-UTR containing a 27-mer RNA construct of the HIV TAR stem-loop bulge whose structure had been determined by NMR.

[4] = tested on: TAR; details: in words, assay not described
[5] = tested on: E. coli; experiment: high throughput screening assay for antibacterial activity (MIC); format: cell-based; details: Escherichia coli, read-out: minimum inhibitory concentrations (MIC's)
Excerpt: This activity was verified by manual solution synthesis of analytically pure material as described in Example 6 above, which had identical activity.

[6] = target: 27-mer model RNA sequence of the 16S A-site; experiment: MASS assay with the 27-mer model RNA sequence of the 16S A-site (Table 6); format: binding; details: 27-mer model RNA of the 16S A-site
Method: (§1) The compounds are screened for binding affinity using MASS or conventional high-throughput functional screens. […] The MASS assay was performed with the 27-mer model RNA sequence of the 16S A-site whose NMR structure has been determined. The transcription/translation assay was based on expression of a luciferase plasmid.
(§2) Paromomycin is an aminoglycoside antibiotic known to bind to the A-site RNA structure. The NMR structure was determined with paromomycin bound at the A-site.

[7] = tested on: 18S rRNA A-site 27-mer RNA model; experiment: ESI-FTICR mass spectrometry binding to mass-tagged 18S A-site 27-mer RNA model; design: species or system eukaryotic; details: aminoglycosides 500 nM each, in words
Method: The ESI-FTICR mass spectrum depicted in FIG. 70 was acquired from a […] mixture of untagged 16S and tagged 18S in the presence of an equimolar mixture of five aminoglycosides. It is to be understood that other biomolecules may be used in place of the aminoglycosides. The aminoglycosides have been selected from two classes of 2-deoxystreptamines: 4,5-disubstituted (paromomycin, and lividomycin), and 4,6-disubstituted (tobramycin, sisomicin, and bekanamycin), present at 500 nM each. Complexes corresponding to 1:1 binding of individual aminoglycosides were observed between 16S and all members of the aminoglycoside mixture, with the apparent affinities estimated from the abundances of the respective complexes differing substantially. Signal intensities from the complexes with paromomycin (m/z 1925.572) and lividomycin (m/z 1954.790) are consistent with MS-measured dissociation constants of 110 nM and 28 nM, respectively. The intensities of 16S complexes with tobramycin (m/z 1895.960), bekanamycin (m/z 1899.171), and sisomicin (m/z 1891.972) were reduced, consistent with solution dissociation constants of […]. Wang, et al., Biochemistry, 1997, 36, 768-779. […] The average mass measurement error obtained for the complexes in FIG. 70 is 2.1 ppm when m/z differences are measured between the most abundant (4 ^13C) isotope peak of 16S and each complex. […]

[8] = target: 16S rRNA A-site 27-mer RNA model; experiment: ESI-FTICR mass spectrometry (MASS) binding to 16S A-site 27-mer RNA model; design: species or system prokaryotic; details: for Kd: 16S A site 27mer, read-out: MS-measured dissociation constant (KD); for complex formation with 16S A site RNA: aminoglycosides 500 nM each, in words
Method: The ESI-FTICR mass spectrum depicted in FIG. 70 was acquired from a […] mixture of untagged 16S and tagged 18S in the presence of an equimolar mixture of five aminoglycosides. It is to be understood that other biomolecules may be used in place of the aminoglycosides. The aminoglycosides have been selected from two classes of 2-deoxystreptamines: 4,5-disubstituted (paromomycin, and lividomycin), and 4,6-disubstituted (tobramycin, sisomicin, and bekanamycin), present at 500 nM each. Complexes corresponding to 1:1 binding of individual aminoglycosides were observed between 16S and all members of the aminoglycoside mixture, with the apparent affinities estimated from the abundances of the respective complexes differing substantially. Signal intensities from the complexes with paromomycin (m/z 1925.572) and lividomycin (m/z 1954.790) are consistent with MS-measured dissociation constants of 110 nM and 28 nM, respectively. The intensities of 16S complexes with tobramycin (m/z 1895.960), bekanamycin (m/z 1899.171), and sisomicin (m/z 1891.972) were reduced, consistent with solution dissociation constants of […]. Wang, et al., Biochemistry, 1997, 36, 768-779. […] The spectrum is calibrated using multiple isotope peaks of the (M−5H^+)^5- and (M−4H^+)^4- charge states of the free RNA as internal mass standards which brackets the m/z range in which complexes are observed. The average mass measurement error obtained for the complexes in FIG. 70 is 2.1 ppm when m/z differences are measured between the most abundant (4 ^13C) isotope peak of 16S and each complex. This post calibration scheme is easily automated which enables rapid, high precision mass measurements of affinity selected ligands against multiple targets in a high throughput mode.
ESI-MS measurements of a solution containing a fixed concentration of RNA at different concentrations of ligand were obtained. By measuring the ratio of bound:unbound RNA at varying ligand concentrations, the Kd was determined by 1/slope of the “titration curve”. The MS derived value of 110 nM is in good agreement with previously reported literature value of 200 nM.
Paromomycin, lividomycin (MW=761.354 Da), sisomicin (MW=447.269 Da), tobramycin (MW=467.2591 Da), and bekanamycin (MW=483.254 Da) were obtained from Sigma (St. Louis, Mo.) and ICN (Costa Mesa, Calif.) and were dissolved to generate 10 mM stock solutions. 2′ methoxy analogs of RNA constructs representing the prokaryotic (16S).rRNA and eukaryotic (18S) rRNA A-site (FIG. 68) were synthesized in house and precipitated twice from 1 M ammonium acetate following deprotection with ammonia (pH 8.5). The mass-tagged constructs contained an 18-atom mass tag (C12H25O9) attached to the 5′-terminus of the RNA oligomer through a phosphodiester linkage.
All mass spectrometry experiments were performed using an Apex 11 70e electrospray ionization Fourier transform ion cyclotron resonance mass spectrometer (Bruker Daltonics, Billerica) employing an actively shielded 7 tesla superconducting magnet. RNA solutions were prepared in 50 mM NH4OAc (pH 7), mixed 1: v:v with isopropanol to aid desolvation, and infused at a rate of […] using a syringe pump. Ions were formed in a modified electrospray source (Analytica, Branford) employing an off axis, grounded electrospray probe positioned ca. 1.5 cm from the metalized terminus of the glass desolvation capillary biased at 5000 V. A counter-current flow of dry oxygen gas heated to 225° C. was employed to assist in the desolvation process. Ions were accumulated in an external ion reservoir comprised of an RF-only hexapole, a skimmer cone, and an auxiliary electrode for 1000 ms prior to transfer into the trapped ion cell for mass analysis. Each spectrum was the result of the coaddition of 16 transients comprised of 256 datapoints acquired over a 90,909 kHz bandwidth resulting in a 700 ms detection interval. […]

[9] = target: decoding region of the prokaryotic 16S rRNA (the A-site); details: 16S A-site, read-out: solution dissociation constant (literature), cited from earlier work
[10] = tested on: translation of a luciferase plasmid; experiment: transcription/translation assay based on expression of a luciferase plasmid; format: biochemical; details: inhibition of translation of a luciferase plasmid
Method: as §1, §2

SMILES: CNc1ccc(NCCO)c2c1C(=O)c1ccccc1C2=O [ACD 00001199]
- concentration disrupting the TAR RNA interaction with tat peptide [1]: 1 µM
- inhibition of translation of luciferase mRNA containing TAR RNA structure ([2]; in words): dose-dependent inhibition of translation
- IC50 ([2]; luciferase mRNA containing the TAR RNA structure in the 5'-UTR, read-out: concentration reducing translation by 50%): 50000 nM
- inhibition of translation of the luciferase mRNA (control) [3]: some inhibition of translation at very high concentrations
- IC5, values [4]: low

SMILES: O=C(NO)[C@@H](Cc1ccc2ccccc2c1)NS(=O)(=O)c1ccc2ccccc2c1 [Compound 5-n-ii, (2R)-3-(2-naphthyl)-2-((2-naphthylsulfonyl)amino)propanehydroxamic acid]
- MIC [5]: 0.7 to 1.5 µM (≈ 0.294 to 0.631 µg/mL)

SMILES: O=C(NO)[C@@H](Cc1ccc2ccccc2c1)NS(=O)(=O)c1ccc(Br)cc1 [Compound 5n-vi, (2R)-2-(((4-bromophenyl)sulfonyl)amino)-3-(2-naphthyl)propanehydroxamic acid]
- MIC [5]: 3 to 6 µM (≈ 1.35 to 2.7 µg/mL)

SMILES: NC[C@@H]1O[C@H](O[C@H]2[C@@H](O)[C@H](O[C@@H]3[C@@H](O)[C@H](N)C[C@H](N)[C@H]3O[C@H]3O[C@H](CO)[C@@H](O)[C@H](O)[C@H]3N)O[C@@H]2CO)[C@H](N)[C@@H](O)[C@@H]1O [Paromomycin]
- Kd [6]: 500 nM
- complex formation with 18S A site RNA [7]: complete absence of complexes
- Kd [8]: 110 nM
- complex formation with 16S A site RNA [8]: High affinity complexes
- Kd ([9]; listed as paromomycin): 200 nM
- Kd [9]: ~200 nM
- Activity^1 [10]: 0.3 µM

- complex formation with 16S A site RNA [8]: Weaker complexes
SMILES: NC[C@H]1O[C@H](O[C@H]2[C@H](O)[C@@H](O[C@H]3O[C@H](CO)[C@@H](O)[C@H](N)[C@H]3O)[C@H](N)C[C@@H]2N)[C@H](N)[C@@H](O)[C@@H]1O [bekanamycin]

SMILES: NC[C@@H]1O[C@H](O[C@H]2[C@@H](O)[C@H](O[C@@H]3[C@@H](O)[C@H](N)C[C@H](N)[C@H]3O[C@H]3O[C@H](CO)[C@@H](O)C[C@H]3N)O[C@@H]2CO)[C@H](N)[C@@H](O)[C@@H]1O[C@H]1O[C@H](CO)[C@@H](O)[C@H](O)[C@@H]1O [lividomycin]
- complex formation with 18S A site RNA [7]: complete absence of complexes
- enhancement of binding affinity for 16S relative to paromomycin [8]: ~4 fold
- Kd [8]: 28 nM
- complex formation with 16S A site RNA [8]: High affinity complexes

- complex formation with 16S A site RNA [8]: Weaker complexes
SMILES: CN[C@@H]1[C@@H](O)[C@@H](O[C@@H]2[C@@H](O)[C@H](O[C@H]3OC(CN)=CC[C@H]3N)[C@@H](N)C[C@H]2N)OC[C@]1(C)O [sisomicin]

- complex formation with 16S A site RNA [8]: Weaker complexes
SMILES: NC[C@H]1O[C@H](O[C@H]2[C@H](O)[C@@H](O[C@H]3O[C@H](CO)[C@@H](O)[C@H](N)[C@H]3O)[C@H](N)C[C@@H]2N)[C@H](N)C[C@@H]1O [tobramycin]
